This is an account of results in patent publication US12624034B2, “Non-covalent modifiers of AKT1 and uses thereof” (Terremoto Biosciences, Inc., priority 2023, dated 2026).

The structures appear in SMILES notation. Where two headings read alike, the source gives them in different places.

In one assay the target is T1, AKT1 WT (Homo sapiens, UniProt P31749).
T1 construct: expressed in transfected cells; host or cells: HEK293
Description: Live cell AKT1 WT target engagement by NanoBRET competitive probe displacement in HEK293 cells. Format: binding. The following applies: 2 h at 37° C., read-out: AKT1 WT IC50.

For a further assay, the target named is T2, AKT2 (Homo sapiens, UniProt P31751).
T2 construct: expressed in transfected cells; host or cells: HEK293
Description: Live cell AKT2 target engagement by NanoBRET competitive probe displacement in HEK293 cells. In kind it is binding. The following applies: 2 h at 37° C., read-out: AKT2 IC50. Background: In BRET a luciferase serves as donor, and the signal depends on an acceptor being close.

[1] abbreviates: NanoBRET live cell target engagement, HEK293 cells.
Setting [2] is: NanoBRET competitive probe displacement, live HEK293 cells.

As usually defined, the IC50 is the midpoint of a concentration-inhibition curve.

T2 sequence (P31751 whole entry): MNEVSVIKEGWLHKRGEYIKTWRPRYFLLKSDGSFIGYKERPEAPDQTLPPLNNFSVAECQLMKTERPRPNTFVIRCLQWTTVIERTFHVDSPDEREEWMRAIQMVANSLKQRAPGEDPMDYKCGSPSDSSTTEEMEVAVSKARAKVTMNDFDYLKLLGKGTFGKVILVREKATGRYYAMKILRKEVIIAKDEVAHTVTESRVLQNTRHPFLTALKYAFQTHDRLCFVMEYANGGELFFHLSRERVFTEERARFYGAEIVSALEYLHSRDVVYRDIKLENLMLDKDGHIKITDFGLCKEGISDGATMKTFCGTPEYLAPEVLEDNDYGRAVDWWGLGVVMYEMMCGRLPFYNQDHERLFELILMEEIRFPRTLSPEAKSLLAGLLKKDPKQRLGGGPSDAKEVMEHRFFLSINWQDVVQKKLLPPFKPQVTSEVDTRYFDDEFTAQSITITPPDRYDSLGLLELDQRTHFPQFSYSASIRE
T1 sequence (P31749 whole entry): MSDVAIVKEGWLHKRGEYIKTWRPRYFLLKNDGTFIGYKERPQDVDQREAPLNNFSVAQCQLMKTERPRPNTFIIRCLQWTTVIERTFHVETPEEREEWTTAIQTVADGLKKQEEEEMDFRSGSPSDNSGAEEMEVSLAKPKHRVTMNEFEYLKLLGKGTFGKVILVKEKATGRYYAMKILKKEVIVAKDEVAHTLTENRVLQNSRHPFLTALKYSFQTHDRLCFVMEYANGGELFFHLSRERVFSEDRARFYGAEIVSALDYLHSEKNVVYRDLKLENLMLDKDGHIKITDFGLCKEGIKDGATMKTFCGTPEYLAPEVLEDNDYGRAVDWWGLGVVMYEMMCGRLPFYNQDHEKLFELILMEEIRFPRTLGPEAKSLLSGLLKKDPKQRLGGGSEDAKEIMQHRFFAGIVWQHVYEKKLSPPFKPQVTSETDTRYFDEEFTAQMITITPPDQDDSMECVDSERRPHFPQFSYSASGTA

On to `Cc1cnc(C)c(C(=O)N[C@H]2CCc3cc(-n4c(-c5cccnc5N)nc5ccc(-n6cccn6)nc54)ccc32)n1` [Compound 183], for which the IC50 at AKT1 WT (setting [1]) is 330 nM; on AKT2 (setting [1]), > 10000 nM.
For `Cc1ccc(C(=O)N[C@H]2CCc3cc(-n4c(-c5cccnc5N)nc5ccc(C#CC6CC6)nc54)ccc32)cn1` [Compound 435], the IC50 is 19.6 nM at AKT1 WT (setting [2]) and 1390 nM at AKT2 (setting [2]).
Consider `COc1ccn(-c2ccc3nc(-c4cccnc4N)n(-c4ccc5c(c4)CC[C@@H]5NC4CCN(C(=O)C5CC5)CC4F)c3n2)n1` (some centres unmarked) [Compound 515], for which the IC50 on AKT1 WT (setting [2]) was found to be 12.1 nM; at AKT2 (setting [2]), 452 nM.
For the compound `Nc1ncccc1-c1nc2ccc(-n3nccn3)nc2n1-c1ccc2c(c1)CC[C@@H]2NC(=O)c1cnc(C2CC2)s1` [Compound 520], the IC50 stood at 9.92 nM at AKT1 WT (setting [2]) and 198 nM on AKT2 (setting [2]).
As to `Nc1ncccc1-c1nc2ccc(-n3cccn3)nc2n1-c1ccc2c(c1)CC[C@@H]2NC(=O)c1ccc2[nH]nnc2c1` [Compound 190], the 50% inhibitory concentration (IC50) at AKT1 WT (setting [1]) is 25.5 nM; on AKT2 (setting [1]) it was 122 nM.
In the case of `Cc1csc(-c2ccc3nc(-c4cccnc4N)n(-c4ccc5c(c4)CC[C@@H]5NC(=O)c4nccnc4C)c3n2)n1` [Compound 302], the IC50 turned out to be 20.9 nM at AKT1 WT (setting [1]) and 456 nM at AKT2 (setting [1]).
The matching figures for `Nc1ncccc1-c1nc2ccc(-n3cccn3)nc2n1-c1ccc2c(c1)CC[C@@H]2NC(=O)c1ccc2ncnn2c1` [Compound 237]: 7.29 nM and 28.1 nM.
For the compound `Cc1ccc(CN(C)[C@H]2CCc3cc(-n4c(-c5cccnc5N)nc5ccc(-n6cccn6)nc54)ccc32)cn1` [Compound 168], the IC50 on AKT1 WT (setting [1]) is 41.1 nM; at AKT2 (setting [1]), 1010 nM.
Regarding `Nc1ncccc1-c1nc2ccc(-n3cccn3)nc2n1-c1ccc2c(c1)CC[C@@H]2NC1CCc2cnccc2C1` (some centres unmarked) [Compound 464], the IC50 is 19.2 nM at AKT1 WT (setting [2]) and 167 nM on AKT2 (setting [2]).
Turning to `Nc1ncccc1-c1nc2ccc(-n3cccn3)nc2n1-c1ccc2c(c1)CC[C@@H]2NC(=O)c1cnc2nccn2c1` [Compound 160], the IC50 on AKT1 WT (setting [1]) was 53.5 nM; at AKT2 (setting [1]), 560 nM.
As for `COCc1cc(C(=O)N[C@H]2CCc3cc(-n4c(-c5cccnc5N)nc5ccc(-n6cccn6)nc54)ccc32)ccc1O` [Compound 410, (S)—N-(5-(2-(2-aminopyridin-3-yl)-5-(1H-pyrazol-1-yl)-3H-imidazo[4,5-b]pyridin-3-yl)-2,3-dihydro-1H-inden-1-yl)-4-hydroxy-3-(methoxymethyl)benzamide], the values for the IC50 at AKT1 WT (setting [2]) and at AKT2 (setting [2]) were 7.43 nM and 57.6 nM, respectively.
Take `Nc1ncccc1-c1nc2ccc(-n3ccc(OC(F)F)n3)nc2n1-c1ccc2c(c1)CC[C@@H]2NC1CCN(C(=O)C2CC2)CC1` [Compound 483]: the results for the IC50 on AKT1 WT (setting [2]) and on AKT2 (setting [2]) were 30.9 nM and 7440 nM, respectively.
Regarding `COc1ccn(-c2ccc3nc(-c4cccnc4N)n(-c4ccc5c(c4)CC[C@@H]5NC4[C@@H]5COC[C@H]4CN(C(=O)C4CC4)C5)c3n2)n1` (single isomer, unassigned) [Compound 524], the IC50 at AKT1 WT (setting [2]) stood at 48.4 nM; at AKT2 (setting [2]), 1740 nM.
Take `Nc1ncccc1-c1nc2ccc(-n3cccn3)nc2n1-c1ccc2c(c1)CC[C@@H]2NC1CC2(CCN(c3ccccn3)CC2)C1` [Compound 449]: the IC50 came out at 79.7 nM on AKT1 WT (setting [2]) and 1200 nM on AKT2 (setting [2]).
Turning to `COc1cccc(C(=O)N[C@H]2CCc3cc(-n4c(-c5cccnc5N)nc5ccc(-n6cccn6)nc54)ccc32)c1` [Compound 335], the IC50 on AKT1 WT (setting [1]) turned out to be 5.88 nM; on AKT2 (setting [1]), 31.5 nM.
Regarding `CC#Cc1cc(C(=O)N[C@H]2CCc3cc(-n4c(-c5cccnc5N)nc5ccc(-n6cccn6)nc54)ccc32)ccn1` [Compound 171, (S)—N-(5-(2-(2-aminopyridin-3-yl)-5-(1H-pyrazol-1-yl)-3H-imidazo[4,5-b]pyridin-3-yl)-2,3-dihydro-1H-inden-1-yl)-2-(prop-1-yn-1-yl)isonicotinamide], the 50% inhibitory concentration (IC50) at AKT1 WT (setting [1]) amounted to 7.74 nM; at AKT2 (setting [1]), 82.9 nM.
As for `Cc1ccc2nc(-c3cccnc3N)n(-c3ccc4c(c3)CC[C@@H]4NC(=O)c3cccnc3C)c2n1` [Compound 145], the figures for the half-inhibitory concentration (IC50) on AKT1 WT (setting [1]) and on AKT2 (setting [1]) were 170 nM and > 10000 nM, respectively.
With `Nc1ncccc1-c1nc2ccc(C#C[C@@H]3CCO3)nc2n1-c1ccc2c(c1)CC[C@@H]2NC(=O)c1ccc(C(F)F)nc1` [Compound 454], the figures for the IC50 on AKT1 WT (setting [2]) and at AKT2 (setting [2]) were 37.5 nM and > 10000 nM, respectively.
On to `Cc1ccc(C(=O)N[C@H]2CCc3cc(-n4c(-c5cccnc5N)nc5ccc(-c6ncc(C)s6)nc54)ccc32)cn1` [Compound 314], for which the values for the IC50 at AKT1 WT (setting [1]) and on AKT2 (setting [1]) were 10.5 nM and 70.4 nM, respectively.
Turning to `CC(C)C(=O)N1CCC(N[C@@H]2c3ccc(-n4c(-c5cccnc5N)nc5ccc(-n6cccn6)nc54)cc3CC2F)CC1` (some centres unmarked) [Compound 542], the IC50 at AKT1 WT (setting [2]) amounted to 117 nM; on AKT2 (setting [2]) it was 2330 nM.
Consider `Cc1ccc(C(=O)N[C@H]2CCc3cc(-n4c(-c5cccnc5N)nc5ccc(-n6ccc(OC(F)F)n6)nc54)ccc32)cn1` [Compound 535], for which the values for the IC50 at AKT1 WT (setting [2]) and at AKT2 (setting [2]) were 6.42 nM and 42.1 nM, respectively.
Consider `Nc1ncccc1-c1nc2ccc(-n3cccn3)nc2n1-c1ccc2c(c1)CC[C@@H]2NC(=O)c1cnc2[nH]ncc2c1` [Compound 192], for which the values for the IC50 on AKT1 WT (setting [1]) and on AKT2 (setting [1]) were 9.54 nM and 86.4 nM, respectively.
As to `Cc1cnc2ccc(C(=O)N[C@H]3CCc4cc(-n5c(-c6cccnc6N)nc6ccc(-n7cccn7)nc65)ccc43)cn12` [Compound 71], the results for the IC50 on AKT1 WT (setting [1]) and at AKT2 (setting [1]) were 4.63 nM and 69.7 nM, respectively.
As for `Nc1ncccc1-c1nc2ccc(-n3ccc(F)n3)nc2n1-c1ccc2c(c1)CC[C@@H]2NC(=O)c1ccc(F)c(F)c1` [Compound 347], the IC50 on AKT1 WT (setting [1]) was determined as 23.7 nM; at AKT2 (setting [1]), 824 nM.
Consider `COc1cc(C(=O)N[C@H]2CCc3cc(-n4c(-c5cccnc5N)nc5ccc(-n6cccn6)nc54)ccc32)nn1C` [Compound 216], for which the IC50 at AKT1 WT (setting [1]) worked out at 58.4 nM; at AKT2 (setting [1]) it was 1390 nM.
With `Nc1ncccc1-c1nc2ccc(-n3cccn3)nc2n1-c1ccc2c(c1)CC[C@@H]2NC(=O)c1cnc(C(F)F)nc1` [Compound 114], the values for the 50% inhibitory concentration (IC50) on AKT1 WT (setting [1]) and at AKT2 (setting [1]) were 9.15 nM and 102 nM, respectively.
The matching figures for `CC(=O)Nc1ccc(C(=O)N[C@H]2CCc3cc(-n4c(-c5cccnc5N)nc5ccc(-n6cccn6)nc54)ccc32)cn1` [Compound 232]: 13.5 nM and 46.6 nM.
Regarding `CC(=O)NCC#Cc1ccc2nc(-c3cccnc3N)n(-c3ccc4c(c3)CC[C@@H]4NC(=O)c3ccc(C)nc3)c2n1` [Compound 327], the results for the IC50 on AKT1 WT (setting [1]) and at AKT2 (setting [1]) were 526 nM and 6850 nM, respectively.
As for `Cc1ccc(S(=O)(=O)N[C@H]2CCc3cc(-n4c(-c5cccnc5N)nc5ccc(-n6cccn6)nc54)ccc32)cn1` [Compound 82], the IC50 was determined as 65.8 nM on AKT1 WT (setting [1]) and 2140 nM at AKT2 (setting [1]).
Regarding `COc1cc(F)cc(C(=O)N[C@H]2CCc3cc(-n4c(-c5cccnc5N)nc5ccc(-n6cccn6)nc54)ccc32)c1` [Compound 334], the IC50 on AKT1 WT (setting [1]) amounted to 8.16 nM; on AKT2 (setting [1]) it was 21.4 nM.
With `Nc1ncccc1-c1nc2ccc(-n3cccn3)nc2n1-c1ccc2c(c1)CC[C@@H]2NC(=O)c1ccccc1F` [Compound 333], the 50% inhibitory concentration (IC50) at AKT1 WT (setting [1]) stood at 6.14 nM; on AKT2 (setting [1]), 58.7 nM.
For `CC(=O)Nc1ccc(C(=O)N[C@H]2CCc3cc(-n4c(-c5cccnc5N)nc5ccc(-n6cccn6)nc54)ccc32)cc1` [Compound 196], in that order: 9.31 nM and 72.4 nM.
As for `COc1ncccc1C(=O)N[C@H]1CCc2cc(-n3c(-c4cccnc4N)nc4ccc(-n5cccn5)nc43)ccc21` [Compound 128], the IC50 on AKT1 WT (setting [1]) worked out at 34.4 nM; at AKT2 (setting [1]), 442 nM.
Turning to `Nc1ncccc1-c1nc2ccc(N3CCOCC3)nc2n1-c1ccc2c(c1)CC[C@@H]2NC(=O)c1ccc(C(F)F)nc1` [Compound 136], the results for the IC50 at AKT1 WT (setting [1]) and at AKT2 (setting [1]) were 19.8 nM and 284 nM, respectively.
Regarding `Nc1ncccc1-c1nc2ccc(-n3cccn3)nc2n1-c1ccc2c(c1)CC[C@@H]2NC(=O)c1cnc2c(c1)CCC2` [Compound 94], the IC50 was determined as 7.33 nM at AKT1 WT (setting [1]) and 18.8 nM at AKT2 (setting [1]).
Take `Cn1nccc1C(=O)N[C@H]1CCc2cc(-n3c(-c4cccnc4N)nc4ccc(-n5cccn5)nc43)ccc21` [Compound 144]: the values for the IC50 on AKT1 WT (setting [1]) and on AKT2 (setting [1]) were 43.6 nM and 520 nM, respectively.
The matching figures for `Nc1ncccc1-c1nc2ccc(-n3cccn3)nc2n1-c1ccc2c(c1)CC[C@@H]2NC(=O)c1ccn2ccnc2c1` [Compound 255]: 3.42 nM and 30.4 nM.
On to `Cc1ncccc1OCC1CCc2cc(-n3c(-c4cccnc4N)nc4ccc(-n5cccn5)nc43)ccc21` (single isomer, unassigned) [Compound 253, (*)-3-(3-(1-(((2-methylpyridin-3-yl)oxy)methyl)-2,3-dihydro-1H-inden-5-yl)-5-(1H-pyrazol-1-yl)-3H-imidazo[4,5-b]pyridin-2-yl)pyridin-2-amine], for which the IC50 at AKT1 WT (setting [1]) was 65.8 nM; on AKT2 (setting [1]), 2120 nM.
As to `Cn1c(=O)[nH]c2ccc(C(=O)N[C@H]3CCc4cc(-n5c(-c6cccnc6N)nc6ccc(-n7cccn7)nc65)ccc43)cc21` [Compound 230], the IC50 at AKT1 WT (setting [1]) is 13.6 nM; on AKT2 (setting [1]) it was 68.2 nM.
As to `Nc1ncccc1-c1nc2ccc(-n3cccn3)nc2n1-c1ccc2c(c1)CC[C@@H]2NC(=O)c1ccnc(OC(F)F)c1` [Compound 202], the results for the IC50 at AKT1 WT (setting [1]) and at AKT2 (setting [1]) were 5.59 nM and 29.4 nM, respectively.
For the compound `CN(CC1CC1)[C@H]1CCc2cc(-n3c(-c4cccnc4N)nc4ccc(-n5cccn5)nc43)ccc21` [Compound 437], the IC50 was found to be 80.7 nM on AKT1 WT (setting [2]) and 1570 nM at AKT2 (setting [2]).
For `Cn1nc(F)cc1C(=O)N[C@H]1CCc2cc(-n3c(-c4cccnc4N)nc4ccc(-n5cccn5)nc43)ccc21` [Compound 396], the IC50 at AKT1 WT (setting [2]) turned out to be 14.7 nM; on AKT2 (setting [2]) it was 250 nM.
For `CN(C)C(=O)c1cc(C(=O)N[C@H]2CCc3cc(-n4c(-c5cccnc5N)nc5ccc(-n6cccn6)nc54)ccc32)ccc1O` [Compound 414], in that order: 26.1 nM and 562 nM.
